Active and inactive are the calls of the source. The rule behind the calls is not given here.
What was measured:
[1] = system: Osteoblast; experiment: Effect on annexin A5 gene expression in rat primary osteoblast cells assessed as expression ratio of treated to untreated control by microarray analysis; type: functional
[2] = system: MC3T3-E1; experiment: Inhibition of antiapoptotic activity in mouse MC3T3-E1 cells at 1 uM after 48 hrs in presence of noggin; type: functional, cell-based

Oc1ccc(/C=C/c2cc(O)cc(O)c2)cc1 [RESVERATROL]
Ratio [1]: 4.02
Activity [2]: Active

From ChEMBL document CHEMBL1156469 (2007)
